One data set relates to Typhlodromus pyri. Description: LR50; higher = less toxic. The settings on record: not reported; mortality.
For another data set, the system named is Aphidius rhopalosiphi. Description: LR50; higher = less toxic. The settings on record: not reported; mortality.
Another data set deals with Daphnia magna. The settings on record: chronic/long-term; duration: 21 days; reproduction.
The next data set relates to Pimephales promelas. Conditions: chronic/long-term; duration: 35 days; other.
A further data set deals with Oncorhynchus mykiss. The settings on record: acute; duration: 96 hours; mortality.
The subject of the next data set is Tagia sp. Conditions: acute; duration: 14 days; mortality.
The subject of a further data set is Anas platyrhynchos. Conditions: chronic/long-term.
For another data set, the system named is Folsomia candida. The settings on record: chronic/long-term; duration: 28 days.
In another data set the test system is Apis mellifera. The settings on record: acute, duration: 48 hours, mortality.
For another data set, the system named is Colinus virginianus. The settings on record: acute, oral, mortality.

Bounds are passed on as bounds.

Broadly, the NOAEL is the highest dose or exposure tested at which no adverse effect was seen.

With `COC(=O)c1csc(C)c1S(=O)(=O)NC(=O)n1nc(OC)n(C)c1=O` [Thiencarbazone-methyl], the results for the LR50 with Typhlodromus pyri and in the data set with Aphidius rhopalosiphi were more than 0.45 g/ha and more than 45 g/ha, respectively. Moreover, the NOEC with Daphnia magna came to 3.54 mg/L; in the data set with Pimephales promelas it was 4.8 mg/L; in the data set on Folsomia candida, 1000 mg/kg. Further, the LC50 in the data set with Oncorhynchus mykiss is more than 104 mg/L; in the data set with Tagia sp., more than 1000 mg/kg. For the same compound, the figures for the NOEL with Anas platyrhynchos and with Rattus norvegicus (chronic) were 24 mg/kg-day and 946 mg/kg-day, respectively. For the same compound, the LD50 with Apis mellifera (dermal) was more than 200 µg/piece; in the data set with Apis mellifera (oral, unspecified), more than 199 µg/piece; with Rattus norvegicus (acute, oral, mortality), more than 2000 mg/kg-day; with Colinus virginianus (diet), more than 699 mg/kg-day; with Colinus virginianus, more than 2000 mg/kg-day. The no observed adverse effect level (NOAEL) in the data set on Rattus norvegicus (chronic, duration: 2 years) turned out to be 22.8 mg/kg-day; in the data set with Rattus norvegicus (subchronic, duration: 90 days, oral) it was 24.7 mg/kg-day.

(Values after EPA's ToxValDB 9.5 (doi:10.2903/j.efsa.2013.3270).)
